Assay results: ChEMBL document CHEMBL5058645, “Data for DCP probe JNJ-6204” (2022)

Experiments:
[1] = target: Dual specificity protein kinase CLK1 (Homo sapiens) (UniProt P49759); assay: CLK1(h) Kinase panel; settings: Compound concentration 1.0 uM, tested as the 2H-labelled form
[2] = target: Tyrosine-protein kinase Lck (Homo sapiens) (UniProt P06239); assay: Lck(h) Kinase panel; settings: Compound concentration 1.0 uM, tested as the 2H-labelled form
[3] = target: Serine/threonine-protein kinase LATS1 (Homo sapiens) (UniProt O95835); assay: LATS1(h) Kinase panel; settings: Compound concentration 1.0 uM, tested as the 2H-labelled form
[4] = target: Tyrosine-protein kinase JAK2 (Homo sapiens) (UniProt O60674); assay: JAK2(h) Kinase panel; settings: Compound concentration 1.0 uM, tested as the 2H-labelled form
[5] = target: Serine/threonine-protein kinase PLK3 (Homo sapiens) (UniProt Q9H4B4); assay: Plk3(h) Kinase panel; settings: Compound concentration 1.0 uM, tested as the 2H-labelled form
[6] = target: Angiopoietin-1 receptor (Homo sapiens) (UniProt Q02763); assay: Tie2 (h) Kinase panel; settings: Compound concentration 1.0 uM, tested as the 2H-labelled form
[7] = target: Inhibitor of nuclear factor kappa-B kinase subunit epsilon (Homo sapiens) (UniProt Q14164); assay: IKKepsilon(h) Kinase panel; settings: Compound concentration 1.0 uM, tested as the 2H-labelled form
[8] = target: Cyclin-dependent kinase 1 (Homo sapiens) (UniProt P06493); assay: CDK1/cyclinB(h) Kinase panel; settings: Compound concentration 1.0 uM, tested as the 2H-labelled form
[9] = target: Tyrosine-protein kinase ITK/TSK (Homo sapiens) (UniProt Q08881); assay: Itk(h) Kinase panel; settings: Compound concentration 1.0 uM, tested as the 2H-labelled form
[10] = target: Insulin-like growth factor 1 receptor (Homo sapiens) (UniProt P08069); assay: IGF-1R(h), activated Kinase panel; settings: Compound concentration 1.0 uM, tested as the 2H-labelled form
[11] = target: Misshapen-like kinase 1 (Homo sapiens) (UniProt Q8N4C8); assay: MINK(h) Kinase panel; settings: Compound concentration 1.0 uM, tested as the 2H-labelled form
[12] = target: Serine/threonine-protein kinase N2 (Homo sapiens) (UniProt Q16513); assay: PRK2(h) Kinase panel; settings: Compound concentration 1.0 uM, tested as the 2H-labelled form
[13] = target: Non-receptor tyrosine-protein kinase TYK2 (Homo sapiens) (UniProt P29597); assay: TYK2(h) Kinase panel; settings: Compound concentration 1.0 uM, tested as the 2H-labelled form
[14] = target: Leukocyte tyrosine kinase receptor (Homo sapiens) (UniProt P29376); assay: LTK(h) Kinase panel; settings: Compound concentration 1.0 uM, tested as the 2H-labelled form
[15] = target: G protein-coupled receptor kinase 6 (Homo sapiens) (UniProt P43250); assay: GRK6(h) Kinase panel; settings: Compound concentration 1.0 uM, tested as the 2H-labelled form
[16] = target: 5-hydroxytryptamine receptor 7 (Homo sapiens) (UniProt P34969); settings: Compound concentration 10.0 uM, tested as the 2H-labelled form
[17] = target: 5-hydroxytryptamine receptor 3A (Homo sapiens) (UniProt P46098); settings: Compound concentration 10.0 uM, tested as the 2H-labelled form
[18] = target: Serine/threonine-protein kinase MRCK alpha (Homo sapiens) (UniProt Q5VT25); assay: MRCKalpha(h) Kinase panel; settings: Compound concentration 1.0 uM, tested as the 2H-labelled form
[19] = target: Calcium/calmodulin-dependent protein kinase type II subunit delta (Homo sapiens) (UniProt Q13557); assay: CaMKIIdelta(h) Kinase panel; settings: Compound concentration 1.0 uM, tested as the 2H-labelled form
D(3) dopamine receptor = D(3) dopamine receptor (Homo sapiens, UniProt P35462); settings: Compound concentration 10.0 uM, tested as the 2H-labelled form
[20] = target: Dual specificity protein kinase TTK (Homo sapiens) (UniProt P33981); assay: TTK(h) Kinase panel; settings: Compound concentration 1.0 uM, tested as the 2H-labelled form
Rattus norvegicus = organism: Rattus norvegicus; settings: Compound concentration 10.0 uM, tested as the 2H-labelled form
[21] = target: Cyclin-dependent kinase-like 2 (Homo sapiens) (UniProt Q92772); assay: CDKL2(h) Kinase panel; settings: Compound concentration 1.0 uM, tested as the 2H-labelled form
[22] = target: 5'-AMP-activated protein kinase catalytic subunit alpha-2 (Homo sapiens, UniProt P54646); assay: AMPKalpha2(h) Kinase panel; settings: Compound concentration 1.0 uM, tested as the 2H-labelled form
[23] = target: Macrophage-stimulating protein receptor (Homo sapiens) (UniProt Q04912); assay: Ron(h) Kinase panel; settings: Compound concentration 1.0 uM, tested as the 2H-labelled form
[24] = target: Dual specificity protein kinase CLK2 (Homo sapiens) (UniProt P49760); assay: CLK2(h) Kinase panel; settings: Compound concentration 1.0 uM, tested as the 2H-labelled form
[25] = target: Homeodomain-interacting protein kinase 2 (Homo sapiens) (UniProt Q9H2X6); assay: HIPK2(h) Kinase panel; settings: Compound concentration 1.0 uM, tested as the 2H-labelled form
[26] = target: Casein kinase II subunit alpha' (Homo sapiens) (UniProt P19784); assay: CK2alpha2(h) Kinase panel; settings: Compound concentration 1.0 uM, tested as the 2H-labelled form
[27] = target: Interleukin-1 receptor-associated kinase 1 (Homo sapiens) (UniProt P51617); assay: IRAK1(h) Kinase panel; settings: Compound concentration 1.0 uM, tested as the 2H-labelled form
[28] = target: Serine/threonine-protein kinase mTOR (Homo sapiens) (UniProt P42345); assay: mTOR(h) Kinase panel; settings: Compound concentration 1.0 uM, tested as the 2H-labelled form
[29] = target: Ribosomal protein S6 kinase alpha-5 (Homo sapiens) (UniProt O75582); assay: MSK1(h) Kinase panel; settings: Compound concentration 1.0 uM, tested as the 2H-labelled form
[30] = target: Tyrosine-protein kinase JAK1 (Homo sapiens) (UniProt P23458); assay: JAK1(h) Kinase panel; settings: Compound concentration 1.0 uM, tested as the 2H-labelled form
[31] = target: Serine/threonine-protein kinase TAO2 (Homo sapiens) (UniProt Q9UL54); assay: TAO2(h) Kinase panel; settings: Compound concentration 1.0 uM, tested as the 2H-labelled form
[32] = target: Dual specificity mitogen-activated protein kinase kinase 1 (Homo sapiens) (UniProt Q02750); assay: MEK1(h) Kinase panel; settings: Compound concentration 1.0 uM, tested as the 2H-labelled form
[33] = target: Serine/threonine-protein kinase PAK 6 (Homo sapiens) (UniProt Q9NQU5); assay: PAK6(h) Kinase panel; settings: Compound concentration 1.0 uM, tested as the 2H-labelled form
[34] = target: Tyrosine-protein kinase receptor UFO (Homo sapiens) (UniProt P30530); assay: Axl(h) Kinase panel; settings: Compound concentration 1.0 uM, tested as the 2H-labelled form
[35] = target: Mitogen-activated protein kinase kinase kinase kinase 4 (Homo sapiens) (UniProt O95819); assay: MAP4K4(h) Kinase panel; settings: Compound concentration 1.0 uM, tested as the 2H-labelled form
Homo sapiens = organism: Homo sapiens; assay: CK2(h) Kinase panel; settings: Compound concentration 1.0 uM, tested as the 2H-labelled form
[36] = target: Calcium/calmodulin-dependent protein kinase type II subunit gamma (Homo sapiens) (UniProt Q13555); assay: CaMKIIgamma(h) Kinase panel; settings: Compound concentration 1.0 uM, tested as the 2H-labelled form
[37] = target: Protein kinase C iota type (Homo sapiens) (UniProt P41743); assay: PKCiota (h) Kinase panel; settings: Compound concentration 1.0 uM, tested as the 2H-labelled form
[38] = target: RAC-alpha serine/threonine-protein kinase (Homo sapiens) (UniProt P31749); assay: PKBalpha (h) Kinase panel; settings: Compound concentration 1.0 uM, tested as the 2H-labelled form
[39] = target: Casein kinase I isoform gamma-3 (Homo sapiens) (UniProt Q9Y6M4); assay: CK1gamma3(h) Kinase panel; settings: Compound concentration 1.0 uM, tested as the 2H-labelled form
[40] = target: Serine/threonine-protein kinase 38-like (Homo sapiens, UniProt Q9Y2H1); assay: NDR2(h) Kinase panel; settings: Compound concentration 1.0 uM, tested as the 2H-labelled form
[41] = target: Ephrin type-A receptor 7 (Homo sapiens) (UniProt Q15375); assay: EphA7(h) Kinase panel; settings: Compound concentration 1.0 uM, tested as the 2H-labelled form
[42] = target: Dual specificity mitogen-activated protein kinase kinase 2 (Homo sapiens) (UniProt P36507); assay: MEK2(h) Kinase panel; settings: Compound concentration 1.0 uM, tested as the 2H-labelled form
[43] = target: MAP/microtubule affinity-regulating kinase 4 (Homo sapiens) (UniProt Q96L34); assay: MARK4(h) Kinase panel; settings: Compound concentration 1.0 uM, tested as the 2H-labelled form
[44] = target: Protein kinase C beta type (Homo sapiens) (UniProt P05771); assay: PKCbetaI (h) Kinase panel; settings: Compound concentration 1.0 uM, tested as the 2H-labelled form
[45] = target: Interleukin-1 receptor-associated kinase 4 (Homo sapiens) (UniProt Q9NWZ3); assay: IRAK4(h) Kinase panel; settings: Compound concentration 1.0 uM, tested as the 2H-labelled form
[46] = target: Tyrosine-protein kinase ZAP-70 (Homo sapiens) (UniProt P43403); assay: ZAP-70(h) Kinase panel; settings: Compound concentration 1.0 uM, tested as the 2H-labelled form
[47] = target: Serine/threonine-protein kinase PLK1 (Homo sapiens) (UniProt P53350); assay: Plk1(h) Kinase panel; settings: Compound concentration 1.0 uM, tested as the 2H-labelled form
[48] = target: Casein kinase I isoform epsilon (Homo sapiens, UniProt P49674); assay: CK1epsilon(h) Kinase panel; settings: Compound concentration 1.0 uM, tested as the 2H-labelled form
[49] = target: Serine/threonine-protein kinase PLK2 (Homo sapiens) (UniProt Q9NYY3); assay: Snk(h) Kinase panel; settings: Compound concentration 1.0 uM, tested as the 2H-labelled form
[50] = target: Tyrosine-protein kinase Fgr (Homo sapiens) (UniProt P09769); assay: Fgr(h) Kinase panel; settings: Compound concentration 1.0 uM, tested as the 2H-labelled form

Sequence of Serine/threonine-protein kinase PAK 6 (Homo sapiens) (Q9NQU5 whole entry, looked up): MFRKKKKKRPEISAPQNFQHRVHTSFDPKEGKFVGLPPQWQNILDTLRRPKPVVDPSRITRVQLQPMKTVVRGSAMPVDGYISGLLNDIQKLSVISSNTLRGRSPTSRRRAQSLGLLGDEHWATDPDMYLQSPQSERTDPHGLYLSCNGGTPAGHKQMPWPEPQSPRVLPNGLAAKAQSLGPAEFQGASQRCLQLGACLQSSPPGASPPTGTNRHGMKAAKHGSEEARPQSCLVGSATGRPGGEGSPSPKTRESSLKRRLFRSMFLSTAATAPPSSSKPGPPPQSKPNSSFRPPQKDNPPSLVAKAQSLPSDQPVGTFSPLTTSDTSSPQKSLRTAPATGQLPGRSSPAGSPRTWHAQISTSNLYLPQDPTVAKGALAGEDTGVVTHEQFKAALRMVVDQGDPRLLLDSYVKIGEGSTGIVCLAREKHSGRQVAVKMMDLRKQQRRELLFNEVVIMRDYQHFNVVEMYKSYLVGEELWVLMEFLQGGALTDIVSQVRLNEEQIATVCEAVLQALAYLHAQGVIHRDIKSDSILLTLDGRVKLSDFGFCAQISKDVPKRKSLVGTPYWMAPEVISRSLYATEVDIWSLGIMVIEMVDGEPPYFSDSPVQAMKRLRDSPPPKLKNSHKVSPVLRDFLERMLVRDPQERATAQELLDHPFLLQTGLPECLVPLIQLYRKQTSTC
Sequence of Serine/threonine-protein kinase PLK2 (Homo sapiens) (Q9NYY3 whole entry, looked up): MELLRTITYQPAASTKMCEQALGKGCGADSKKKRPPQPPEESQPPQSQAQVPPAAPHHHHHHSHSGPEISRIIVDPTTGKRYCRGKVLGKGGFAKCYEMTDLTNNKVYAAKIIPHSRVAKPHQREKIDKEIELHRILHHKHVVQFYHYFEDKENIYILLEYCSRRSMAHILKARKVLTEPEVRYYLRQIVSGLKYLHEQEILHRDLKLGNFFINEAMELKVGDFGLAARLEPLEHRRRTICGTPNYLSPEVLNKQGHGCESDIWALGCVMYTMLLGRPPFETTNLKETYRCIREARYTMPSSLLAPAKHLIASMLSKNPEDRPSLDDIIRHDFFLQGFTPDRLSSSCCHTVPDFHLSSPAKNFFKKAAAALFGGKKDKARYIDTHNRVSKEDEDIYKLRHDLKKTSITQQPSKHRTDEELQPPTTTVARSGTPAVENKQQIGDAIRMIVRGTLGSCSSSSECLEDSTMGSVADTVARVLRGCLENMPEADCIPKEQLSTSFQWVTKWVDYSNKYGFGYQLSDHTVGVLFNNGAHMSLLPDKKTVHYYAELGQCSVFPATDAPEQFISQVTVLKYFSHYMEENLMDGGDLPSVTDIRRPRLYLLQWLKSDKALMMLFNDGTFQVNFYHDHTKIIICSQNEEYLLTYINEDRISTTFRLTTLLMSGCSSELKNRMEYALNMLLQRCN
Sequence of Tyrosine-protein kinase JAK1 (Homo sapiens) (P23458 whole entry): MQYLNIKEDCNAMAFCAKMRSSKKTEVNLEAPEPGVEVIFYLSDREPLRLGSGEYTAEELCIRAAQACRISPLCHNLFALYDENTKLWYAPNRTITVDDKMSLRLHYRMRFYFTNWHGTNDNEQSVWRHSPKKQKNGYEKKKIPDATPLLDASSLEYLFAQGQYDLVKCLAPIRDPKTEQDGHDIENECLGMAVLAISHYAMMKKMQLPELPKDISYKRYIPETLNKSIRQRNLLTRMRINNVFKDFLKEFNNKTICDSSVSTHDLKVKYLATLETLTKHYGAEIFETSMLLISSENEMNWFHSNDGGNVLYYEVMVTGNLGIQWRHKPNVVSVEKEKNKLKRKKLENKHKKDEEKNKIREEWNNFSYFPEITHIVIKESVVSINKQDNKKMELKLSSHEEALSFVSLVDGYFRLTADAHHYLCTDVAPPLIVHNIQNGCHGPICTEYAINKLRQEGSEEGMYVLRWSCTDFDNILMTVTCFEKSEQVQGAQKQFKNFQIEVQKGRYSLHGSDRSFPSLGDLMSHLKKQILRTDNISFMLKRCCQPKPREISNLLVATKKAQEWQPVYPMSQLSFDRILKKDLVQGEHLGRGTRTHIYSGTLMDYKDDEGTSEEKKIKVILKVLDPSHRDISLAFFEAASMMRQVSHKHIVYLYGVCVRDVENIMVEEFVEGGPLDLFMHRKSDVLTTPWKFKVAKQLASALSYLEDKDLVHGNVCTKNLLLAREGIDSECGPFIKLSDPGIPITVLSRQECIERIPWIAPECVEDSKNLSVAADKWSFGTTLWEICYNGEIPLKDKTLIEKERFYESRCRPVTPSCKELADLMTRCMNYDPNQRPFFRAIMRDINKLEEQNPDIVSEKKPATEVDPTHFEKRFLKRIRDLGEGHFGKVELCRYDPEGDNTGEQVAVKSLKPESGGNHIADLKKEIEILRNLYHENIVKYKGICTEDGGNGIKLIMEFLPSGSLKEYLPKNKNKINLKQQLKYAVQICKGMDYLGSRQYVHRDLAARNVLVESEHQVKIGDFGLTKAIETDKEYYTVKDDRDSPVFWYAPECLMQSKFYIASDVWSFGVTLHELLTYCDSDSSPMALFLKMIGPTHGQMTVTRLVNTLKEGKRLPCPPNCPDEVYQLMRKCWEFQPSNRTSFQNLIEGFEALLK
Sequence of Protein kinase C iota type (Homo sapiens) (P41743 whole entry): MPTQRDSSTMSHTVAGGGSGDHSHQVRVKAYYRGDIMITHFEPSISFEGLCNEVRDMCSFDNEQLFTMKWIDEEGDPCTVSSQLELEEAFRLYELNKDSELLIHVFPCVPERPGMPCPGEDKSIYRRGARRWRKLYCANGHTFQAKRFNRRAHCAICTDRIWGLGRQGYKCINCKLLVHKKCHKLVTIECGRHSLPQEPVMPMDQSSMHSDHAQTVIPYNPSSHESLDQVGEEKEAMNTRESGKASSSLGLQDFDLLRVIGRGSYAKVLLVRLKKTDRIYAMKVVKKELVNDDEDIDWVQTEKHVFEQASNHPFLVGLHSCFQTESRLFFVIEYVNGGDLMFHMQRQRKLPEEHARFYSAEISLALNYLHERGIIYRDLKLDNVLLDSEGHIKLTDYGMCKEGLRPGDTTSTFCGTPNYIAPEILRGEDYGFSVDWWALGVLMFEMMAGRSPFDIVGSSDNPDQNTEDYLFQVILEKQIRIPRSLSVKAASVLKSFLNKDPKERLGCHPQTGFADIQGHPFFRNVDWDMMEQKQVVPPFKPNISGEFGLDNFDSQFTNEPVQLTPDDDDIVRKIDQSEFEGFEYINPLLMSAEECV
Sequence of RAC-alpha serine/threonine-protein kinase (Homo sapiens) (P31749 whole entry, canonical isoform): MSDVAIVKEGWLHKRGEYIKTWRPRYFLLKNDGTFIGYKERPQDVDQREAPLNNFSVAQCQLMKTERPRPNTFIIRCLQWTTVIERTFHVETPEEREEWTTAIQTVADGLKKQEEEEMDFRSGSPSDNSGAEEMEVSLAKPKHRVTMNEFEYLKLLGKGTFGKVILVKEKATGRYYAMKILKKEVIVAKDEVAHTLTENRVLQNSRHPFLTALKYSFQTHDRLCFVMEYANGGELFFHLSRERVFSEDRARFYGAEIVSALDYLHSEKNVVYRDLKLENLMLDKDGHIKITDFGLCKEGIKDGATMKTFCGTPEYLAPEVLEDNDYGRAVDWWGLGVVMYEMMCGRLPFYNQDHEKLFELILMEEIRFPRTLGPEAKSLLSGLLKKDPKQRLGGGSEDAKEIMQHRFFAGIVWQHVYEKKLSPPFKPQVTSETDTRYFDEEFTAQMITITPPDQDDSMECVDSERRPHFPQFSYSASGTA
Sequence of Misshapen-like kinase 1 (Homo sapiens) (Q8N4C8 whole entry, looked up): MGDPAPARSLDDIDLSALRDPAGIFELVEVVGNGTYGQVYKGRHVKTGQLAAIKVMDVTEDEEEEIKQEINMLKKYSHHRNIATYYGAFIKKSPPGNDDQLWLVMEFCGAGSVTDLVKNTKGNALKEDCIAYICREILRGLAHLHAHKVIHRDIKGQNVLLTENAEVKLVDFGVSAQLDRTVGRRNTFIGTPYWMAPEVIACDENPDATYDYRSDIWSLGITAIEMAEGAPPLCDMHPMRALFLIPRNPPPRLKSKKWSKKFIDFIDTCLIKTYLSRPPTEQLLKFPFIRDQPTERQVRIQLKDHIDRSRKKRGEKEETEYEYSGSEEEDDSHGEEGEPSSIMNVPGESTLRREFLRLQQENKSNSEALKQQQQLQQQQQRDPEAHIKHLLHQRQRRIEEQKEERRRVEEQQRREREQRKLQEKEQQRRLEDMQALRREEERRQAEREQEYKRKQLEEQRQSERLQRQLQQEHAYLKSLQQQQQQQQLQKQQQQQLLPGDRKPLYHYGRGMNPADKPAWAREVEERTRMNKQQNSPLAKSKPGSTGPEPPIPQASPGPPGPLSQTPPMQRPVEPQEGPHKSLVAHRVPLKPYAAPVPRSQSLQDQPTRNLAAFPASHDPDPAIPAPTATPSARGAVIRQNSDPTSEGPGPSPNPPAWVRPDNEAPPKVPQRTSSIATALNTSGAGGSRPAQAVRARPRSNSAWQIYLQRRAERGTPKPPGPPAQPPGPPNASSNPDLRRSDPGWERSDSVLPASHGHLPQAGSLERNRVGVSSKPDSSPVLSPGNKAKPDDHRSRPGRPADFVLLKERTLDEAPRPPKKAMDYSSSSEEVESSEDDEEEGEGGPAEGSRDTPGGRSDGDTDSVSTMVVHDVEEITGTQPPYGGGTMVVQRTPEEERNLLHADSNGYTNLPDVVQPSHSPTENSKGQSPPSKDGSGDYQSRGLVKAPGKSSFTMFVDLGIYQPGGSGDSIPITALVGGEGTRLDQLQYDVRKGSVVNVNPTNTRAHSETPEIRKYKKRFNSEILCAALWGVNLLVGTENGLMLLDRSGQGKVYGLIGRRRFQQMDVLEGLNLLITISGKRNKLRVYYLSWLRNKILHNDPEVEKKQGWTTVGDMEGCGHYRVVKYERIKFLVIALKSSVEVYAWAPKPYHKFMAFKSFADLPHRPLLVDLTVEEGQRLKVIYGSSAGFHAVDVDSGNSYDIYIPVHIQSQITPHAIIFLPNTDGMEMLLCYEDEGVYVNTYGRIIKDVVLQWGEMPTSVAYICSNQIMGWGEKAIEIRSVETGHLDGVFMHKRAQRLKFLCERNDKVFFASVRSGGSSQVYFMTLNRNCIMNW

## CC1(C)Cn2nc(-c3ccc(F)cn3)c(-c3ccnc4[nH]ncc34)c2CO1
[1]
  inhibition: 6%
[2]
  inhibition: 17%
[3]
  inhibition: 20%
[4]
  inhibition: 1%
[5]
  inhibition: -7%
[6]
  inhibition: 1%
[7]
  inhibition: -1%
[8]
  inhibition: -8%
[9]
  inhibition: -8%
[10]
  inhibition: 1%
[11]
  inhibition: 2%
[12]
  inhibition: -6%
[13]
  inhibition: -5%
[14]
  inhibition: 13%
[15]
  inhibition: -9%
[16]
  inhibition: -3.57%
[17]
  inhibition: 1.04%
[18]
  inhibition: 6%
[19]
  inhibition: -6%
D(3) dopamine receptor
  inhibition: -0.66%
[20]
  inhibition: 10%
Rattus norvegicus
  inhibition: 50.9%
[21]
  inhibition: 0%
[22]
  inhibition: 31%
[23]
  inhibition: 13%
[24]
  inhibition: 14%
[25]
  inhibition: 21%
[26]
  inhibition: 4%
[27]
  inhibition: 15%
[28]
  inhibition: -9%
[29]
  inhibition: 8%
[30]
  inhibition: -2%
[31]
  inhibition: 18%
[32]
  inhibition: 4%
[33]
  inhibition: 5%
[34]
  inhibition: 16%
[35]
  inhibition: 21%
Homo sapiens
  inhibition: 2%
[36]
  inhibition: -2%
[37]
  inhibition: -2%
[38]
  inhibition: 2%
[39]
  inhibition: -2%
[40]
  inhibition: 30%
[41]
  inhibition: 8%
[42]
  inhibition: 4%
[43]
  inhibition: 4%
[44]
  inhibition: 4%
[45]
  inhibition: -7%
[46]
  inhibition: 12%
[47]
  inhibition: 15%
[48]
  inhibition: 96%
[49]
  inhibition: -4%
[50]
  inhibition: 7%
